Test results reported in patent US9073955B2, “2-amino-4-arylthiazole compounds as TRPA1 antagonists” (Glenmark Pharmaceuticals, S.A., priority 2010, dated 2015).
pIC50: −log10 of the molar value. Where two headings read alike, the source gives them in different places.

How the values were obtained:
Human TRPA1 = target: T1, Human TRPA1 (Homo sapiens, UniProt O75762); assay: 45Calcium uptake assay: inhibition of AITC induced cellular uptake of radioactive calcium; assay type: cell-based; details: human TRPA1 expressing CHO cells, AITC 30 μM; for inhibition at 1 µM: read-out: Percentage inhibition at 1.0 μM; for inhibition at 10 µM: read-out: Percentage inhibition at 10.0 μM
T1 construct: expressed in transfected cells; host or cells: CHO cells (grown with 400 μg/ml G-418)
Method: The illustrative examples of the present invention were screened for TRPA1 activity according to a modified procedure described in (a) Tóth, A. et al. Life Sciences, 2003, 73, 487-498. ([…]. et al, Proc. Natl. Acad. Sci. U.S.A., 2007, 104, 13525-13530. The screening of the compounds can be carried out by other methods and procedures known to persons skilled in the art. Screening for TRPA1 Antagonist Using the ^45Calcium Uptake Assay: The inhibition of TRPA1 receptor activation was measured as inhibition of allyl isothiocyanate (AITC) induced cellular uptake of radioactive calcium. Test compounds were dissolved in 100% DMSO to prepare 10 mM stock and then diluted using plain medium with 0.1% BSA and 1.8 mM CaCl2 to get the desired concentration. The final concentration of DMSO in the reaction was 0.5% (v/v). Human TRPA1 expressing CHO cells were grown in F-12 DMEM medium with 10% FBS, 1% penicillin-streptomycin solution, and 400 μg/ml of G-418. Cells were seeded 24 h prior to the assay in 96 well plates so as to get 50,000 cells per well on the day of experiment. Cells were treated with the test compounds for 10 minutes followed by the addition of AITC at a final concentration of 30 μM and 5 μCi/ml^45Ca^+2 for 3 minutes. Cells were washed and lysed using a buffer containing 1% Triton X-100, 0.1% deoxycholate and 0.1% SDS. Radioactivity in the lysate was measured in a Packard TopCount after addition of liquid scintillant. (Toth et al, Life Sciences (2003) 73, 487-498; McNamara C R et al, Proceedings of the National Academy of Sciences, (2007) 104, 13525-13530). Concentration response curves were plotted as a % of maximal response obtained in the absence of test antagonist. IC50 values can be calculated from concentration response curve by nonlinear regression analysis using GraphPad PRISM software.

[1] = Determination of solubility by shake flask method (water); assay type: physicochemical; details: for solubility at 15 min: thermodynamic from solid, water, 37° C., shake flask
Method: About 1 mg of test substance was taken in test tube and water was added in the increment of 1 ml with shaking after addition of media (water). Solubility was observed visually also. After completion of addition of 10 ml volume of media (water), test tube containing sample solution were put on a mechanical shaker set at 37° C. and 200 rpm for shaking up to 15 minute. After shaking, content of flask was filtered through 0.45μ filter. This filtered solution is analyzed using HPLC method for quantification. A sample solution of 1 mg in 10 ml of DMSO is used as reference standard for quantifying dissolved test substance in media. Solubility is expressed as mcg/ml.
Aqueous solubility of ‘P’ substituted thiazole compounds and the parent thiazole compounds were determined using the above described procedure and the results are given Table 3.

[2] = Rat pharmacokinetic (PK) study, oral suspension; assay type: in vivo, male rats (Sprague Dawley); details: for pharmacokinetic properties (Cmax and AUC) compared to the parent thiazole acetamide: compared with the corresponding parent compound of formula (1); for Cmax / AUC(0-t): rat, plasma, parent thiazole compound of the example, male Sprague Dawley rats, oral suspension; for AUC(0-t): read-out: AUC0-24
Method: PK values were obtained in male rats (strain: Sprague Dawley) orally dosed with the compounds of the present invention as suspension. Accurately weighed quantity of compound of present invention (corrected for purity and salt factor) was transferred into a clean and dry mortar. To this mortar was added 2.5 μL/mL Tween 80 and triturated until the compound gets properly wet. To this, 0.5% (w/v) methyl cellulose suspension was added in geometric proportions and triturated thoroughly to form a uniform suspension.
Animals were provided with food and water ad libitum through out the study period. Animals were dosed orally with the compounds using a gavage needle at 10 mL/kg body weight. Blood samples (250 μl approx.) were collected from male Sprague Dawley retro orbital sinus using rat capillary tubes into 0.6 mL eppendorf tubes with tripotassium ethylenediaminetetraacetic acid (K3 EDTA) (25 μL) as anticoagulant. Samples were collected at 0.5, 1.0, 2.0, 4.0, 6.0, 8.0, 12.0 and 24.0 hr post dosing for compounds. Then samples were centrifuged immediately at 1000 g for 10 min. at 4° C. Plasma samples were separated and stored at −70° C. till analysis. Samples were processed and analyzed using LCMS/MS. Pharmacokinetic parameters were calculated using Winonlin software. Table 4 provides the pK values (Cmax, AUC) obtained in these studies.

[3] = ‘P’ substituted thiazole compound
[4] = parent thiazole compound of the example

T1 sequence (O75762 whole entry): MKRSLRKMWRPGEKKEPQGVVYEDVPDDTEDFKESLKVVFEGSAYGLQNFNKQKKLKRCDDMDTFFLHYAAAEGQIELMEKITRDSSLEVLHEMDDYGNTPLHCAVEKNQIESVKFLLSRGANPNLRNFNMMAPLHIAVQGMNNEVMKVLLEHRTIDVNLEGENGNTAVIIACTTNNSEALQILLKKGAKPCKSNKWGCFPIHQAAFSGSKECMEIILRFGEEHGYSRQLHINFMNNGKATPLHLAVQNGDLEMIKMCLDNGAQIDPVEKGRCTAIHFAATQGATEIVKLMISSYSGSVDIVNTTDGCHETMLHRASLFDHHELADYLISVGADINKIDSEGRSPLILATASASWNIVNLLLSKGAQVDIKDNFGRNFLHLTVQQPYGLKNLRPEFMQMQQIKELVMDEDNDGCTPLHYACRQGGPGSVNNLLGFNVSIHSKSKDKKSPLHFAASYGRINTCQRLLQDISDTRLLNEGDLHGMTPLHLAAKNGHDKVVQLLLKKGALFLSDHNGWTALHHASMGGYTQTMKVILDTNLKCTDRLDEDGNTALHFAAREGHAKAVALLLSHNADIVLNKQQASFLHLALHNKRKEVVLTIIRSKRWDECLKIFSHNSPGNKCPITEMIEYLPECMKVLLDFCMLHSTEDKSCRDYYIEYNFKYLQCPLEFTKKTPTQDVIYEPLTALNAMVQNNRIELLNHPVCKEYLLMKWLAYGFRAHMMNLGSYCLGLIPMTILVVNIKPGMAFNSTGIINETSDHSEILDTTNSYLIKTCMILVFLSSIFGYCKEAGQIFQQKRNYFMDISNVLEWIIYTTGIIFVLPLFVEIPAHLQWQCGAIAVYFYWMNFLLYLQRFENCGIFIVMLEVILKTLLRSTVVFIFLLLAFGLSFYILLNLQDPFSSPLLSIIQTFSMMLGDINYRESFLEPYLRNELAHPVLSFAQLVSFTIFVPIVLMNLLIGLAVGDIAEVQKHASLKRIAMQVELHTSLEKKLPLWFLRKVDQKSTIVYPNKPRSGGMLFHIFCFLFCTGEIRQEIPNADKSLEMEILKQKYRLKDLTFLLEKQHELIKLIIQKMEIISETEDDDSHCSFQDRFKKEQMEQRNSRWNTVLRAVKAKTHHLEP

Structure (SMILES) | pIC50 (Human TRPA1) | pharmacokinetic properties (Cmax and AUC) compared to the parent thiazole acetamide [2] | solubility at 15 min [1, 3] [µg/mL] | solubility at 15 min [1, 4] [µg/mL] | Cmax [2] [ng/mL] | AUC(0-t) [2] [ng·h/mL] | also measured
Cc1oc2c(c1CC(=O)/N=c1\scc(-c3ccc(OC(F)(F)F)c(Cl)c3)n1COP(=O)([O-])[O-])c(=O)n(C)c(=O)n2C.[Na+].[Na+] [Example 26, Disodium[4-[3-chloro-4-(trifluoromethoxy)phenyl]-2-{[(1,3,6-trimethyl-2,4-dioxo-1,2,3,4-tetrahydrofuro[2,3-d]pyrimidin-5-yl)acetyl]imino}-1,3-thiazol-3 (2H)-yl]methyl phosphate] |  |  | > 75 |  |  |  | Percentage inhibition at 1.0 μM (Human TRPA1): 12.64%; Percentage inhibition at 10.0 μM (Human TRPA1; 10.0 μM): 96.25%
Cn1nc2c(c1CC(=O)N=c1scc(-c3ccc(F)c(C(F)(F)F)c3F)n1COP(=O)([O-])[O-])c(=O)n(C)c(=O)n2C.[Na+].[Na+] [Example 29, Disodium-(4-(2,4-difluoro-3-(trifluoromethyl)phenyl)-2-((2-(2,5,7-trimethyl-4,6-dioxo-4,5,6,7-tetrahydro-2H-pyrazolo[3,4-d]pyrimidin-3-yl)acetyl)imino)thiazol-3 (2H)-yl)methyl phosphate] | < 6.30 |  | > 110 |  |  |  | 
Cn1c(=O)c2c(CC(=O)Nc3nc(-c4ccc(F)c(C(F)(F)F)c4F)cs3)csc2n(C)c1=O [parent of Example 10, N-{4-[2,4-difluoro-3-(trifluoromethyl)phenyl]-1,3-thiazol-2-yl}-2-(1,3-dimethyl-2,4-dioxo-1,2,3,4-tetrahydrothieno[2,3-d]pyrimidin-5-yl)acetamide, reference compound] |  |  |  | < 0.2 | < 250 | < 4000 | 
Cc1oc2c(c1CC(=O)Nc1nc(-c3ccc(OC(F)(F)F)c(Cl)c3)cs1)c(=O)n(C)c(=O)n2C [parent of Example 25, N-{4-[3-chloro-4-(trifluoromethoxy)phenyl]-1,3-thiazol-2-yl}-2-(1,3,6-trimethyl-2,4-dioxo-1,2,3,4-tetrahydrofuro[2,3-d]pyrimidin-5-yl)acetamide, reference compound] |  |  |  | < 1.1 | < 250 | < 3000 | 

Now from value to compound, other results behind:

pIC50 (Human TRPA1) | pharmacokinetic properties (Cmax and AUC) compared to the parent thiazole acetamide [2] | solubility at 15 min [1, 3] [µg/mL] | solubility at 15 min [1, 4] [µg/mL] | Cmax [2] [ng/mL] | AUC(0-t) [2] [ng·h/mL] | Structure (SMILES) | also measured
< 6.30 | better pharmacokinetic properties |  |  |  |  | Cn1c(=O)c2c(CC(=O)/N=c3\scc(-c4ccc(C(F)(F)F)c(F)c4)n3COP(=O)(O)O)csc2n(C)c1=O [Example 11, [2-{[(1,3-Dimethyl-2,4-dioxo-1,2,3,4-tetrahydrothieno[2,3-d]pyrimidin-5-yl)acetyl]imino}-4-[3-fluoro-4-(trifluoromethyl)phenyl]-1,3-thiazol-3 (2H)-yl]methyl dihydrogen phosphate] | inhibition at 1 µM (Human TRPA1): 53.4%; inhibition at 10 µM (Human TRPA1; 10.0 μM): 99.8%; aqueous solubility over the parent thiazole acetamide ([1]; compared with the corresponding parent compound of formula (1)): better aqueous solubility
< 6.30 | better pharmacokinetic properties | > 10 |  |  |  | Cc1oc2c(c1CC(=O)/N=c1\scc(-c3ccc(OC(F)(F)F)c(Cl)c3)n1COP(=O)(O)O)c(=O)n(C)c(=O)n2C [Example 25, [4-[3-Chloro-4-(trifluoromethoxy)phenyl]-2-{[(1,3,6-trimethyl-2,4-dioxo-1,2,3,4-tetrahydrofuro[2,3-d]pyrimidin-5-yl)acetyl]imino}-1,3-thiazol-3 (2H)-yl]methyl dihydrogen phosphate] | Percentage inhibition at 1.0 μM (Human TRPA1): 46.47%; inhibition at 10 µM (Human TRPA1; CHO, 10.0 μM): 97.8%
< 6.30 | better pharmacokinetic properties | > 30 |  |  |  | Cn1nc2c(c1CC(=O)/N=c1\scc(-c3ccc(F)c(C(F)(F)F)c3F)n1COP(=O)(O)O)c(=O)n(C)c(=O)n2C [Example 28, 4-(2,4-Difluoro-3-(trifluoromethyl)phenyl)-2-((2-(2,5,7-trimethyl-4,6-dioxo-4,5,6,7-tetrahydro-2H-pyrazolo[3,4-d]pyrimidin-3-yl)acetyl)imino)thiazol-3 (2H)-yl)methyl dihydrogen phosphate] | inhibition at 1 µM (Human TRPA1; CHO): 29.5%; inhibition at 10 µM (Human TRPA1; CHO, 10.0 μM): 92.4%
 |  |  | < 0.1 | < 500 | < 7000 | Cn1nc2c(c1CC(=O)Nc1nc(-c3ccc(F)c(C(F)(F)F)c3F)cs1)c(=O)n(C)c(=O)n2C [parent of Example 28, N-(4-(2,4-difluoro-3-(trifluoromethyl)phenyl)thiazol-2-yl)-2-(2,5,7-trimethyl-4,6-dioxo-4,5,6,7-tetrahydro-2H-pyrazolo[3,4-d]pyrimidin-3-yl)acetamide, reference compound] | 
